Measured values: patent US10457654B2 (GENENTECH, INC., priority 2017, dated 2019)
Counter-ions that a name gives are not always drawn.

How the values were obtained:
hNav1.7 [1] = target: T1, hNav1.7 (Homo sapiens (Human), UniProt Q15858); assay: Patch voltage clamp electrophysiology assay (EP), Syncropatch 384PE, CHO cells expressing Nav1.7; format: cell-based; details: holding potential -50 mV; […] compound incubation; read-out: EP_SP hNav1.7 (Ex. 243B) IC50
Summary of the method: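 Automated whole-cell patch clamp on CHO cells stably expressing human Nav1.7, CsCl/EGTA internal and NMDG/80 mM Na+ external (pH 7.4). From −50 mV holding, −10 mV step, 20 ms recovery at −150 mV, then second −10 mV pulse where block is measured; inhibition after 7.5 min compound incubation.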
Target sequence in this assay (Q15858 other isoform, or with tags, fused parts or gaps): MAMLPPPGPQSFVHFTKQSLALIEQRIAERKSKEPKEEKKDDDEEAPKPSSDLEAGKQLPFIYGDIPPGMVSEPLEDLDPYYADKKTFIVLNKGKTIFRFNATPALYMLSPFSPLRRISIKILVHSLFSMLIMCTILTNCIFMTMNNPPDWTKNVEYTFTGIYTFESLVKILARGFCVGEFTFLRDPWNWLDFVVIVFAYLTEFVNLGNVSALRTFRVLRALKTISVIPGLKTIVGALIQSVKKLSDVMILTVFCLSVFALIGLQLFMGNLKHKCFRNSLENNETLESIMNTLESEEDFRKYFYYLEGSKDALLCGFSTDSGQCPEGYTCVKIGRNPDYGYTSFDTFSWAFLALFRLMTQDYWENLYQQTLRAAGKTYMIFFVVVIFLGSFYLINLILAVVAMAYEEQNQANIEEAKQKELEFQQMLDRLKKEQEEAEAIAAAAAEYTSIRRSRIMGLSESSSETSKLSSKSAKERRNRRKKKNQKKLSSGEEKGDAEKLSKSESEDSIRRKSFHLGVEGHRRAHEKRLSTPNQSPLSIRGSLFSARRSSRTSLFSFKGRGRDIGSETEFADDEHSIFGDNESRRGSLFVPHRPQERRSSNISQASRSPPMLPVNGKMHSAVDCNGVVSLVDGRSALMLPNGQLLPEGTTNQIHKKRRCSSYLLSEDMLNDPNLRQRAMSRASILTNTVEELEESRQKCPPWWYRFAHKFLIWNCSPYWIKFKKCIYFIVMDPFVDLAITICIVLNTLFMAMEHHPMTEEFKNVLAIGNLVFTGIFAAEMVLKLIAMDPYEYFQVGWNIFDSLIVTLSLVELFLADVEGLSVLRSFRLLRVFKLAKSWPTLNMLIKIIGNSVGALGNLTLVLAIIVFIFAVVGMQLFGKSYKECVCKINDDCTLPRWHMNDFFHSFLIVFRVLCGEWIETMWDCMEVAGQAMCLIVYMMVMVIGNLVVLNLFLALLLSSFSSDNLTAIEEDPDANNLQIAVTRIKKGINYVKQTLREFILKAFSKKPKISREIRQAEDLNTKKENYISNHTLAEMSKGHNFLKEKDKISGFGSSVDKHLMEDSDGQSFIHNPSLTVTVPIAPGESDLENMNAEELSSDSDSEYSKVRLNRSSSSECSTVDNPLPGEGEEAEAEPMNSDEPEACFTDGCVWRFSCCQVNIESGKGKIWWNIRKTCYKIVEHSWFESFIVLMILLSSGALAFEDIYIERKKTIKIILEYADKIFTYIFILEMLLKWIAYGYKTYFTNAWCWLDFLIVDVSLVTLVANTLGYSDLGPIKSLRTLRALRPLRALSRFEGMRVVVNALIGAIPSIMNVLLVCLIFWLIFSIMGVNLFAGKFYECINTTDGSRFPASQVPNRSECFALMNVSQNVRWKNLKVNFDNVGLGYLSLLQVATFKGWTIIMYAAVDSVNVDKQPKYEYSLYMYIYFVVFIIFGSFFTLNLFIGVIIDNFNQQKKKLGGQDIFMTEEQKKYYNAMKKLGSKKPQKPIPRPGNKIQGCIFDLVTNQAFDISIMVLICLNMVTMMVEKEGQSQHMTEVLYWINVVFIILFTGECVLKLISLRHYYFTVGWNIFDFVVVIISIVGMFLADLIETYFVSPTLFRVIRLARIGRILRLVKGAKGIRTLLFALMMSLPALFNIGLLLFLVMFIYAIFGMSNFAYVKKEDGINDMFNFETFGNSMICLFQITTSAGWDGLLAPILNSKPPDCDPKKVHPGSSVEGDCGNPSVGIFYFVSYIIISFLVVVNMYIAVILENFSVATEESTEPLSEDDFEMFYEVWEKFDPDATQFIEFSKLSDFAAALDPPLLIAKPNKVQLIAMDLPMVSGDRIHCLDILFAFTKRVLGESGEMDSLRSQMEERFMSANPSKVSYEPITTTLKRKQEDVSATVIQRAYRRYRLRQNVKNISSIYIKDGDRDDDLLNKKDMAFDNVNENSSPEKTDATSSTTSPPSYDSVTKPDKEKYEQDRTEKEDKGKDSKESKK

hNav1.7 [2] = target: T1, hNav1.7; assay: Tritiated compound binding to membranes from cells expressing hNav1.7 and the β1 subunit, modified protocol (LBA, Ex. 243B); details: 300 pM [3H]compound, room temperature, read-out: Nav1.7 LBA (Ex. 243B) IC50
Target sequence in this assay (Q15858 whole entry, looked up): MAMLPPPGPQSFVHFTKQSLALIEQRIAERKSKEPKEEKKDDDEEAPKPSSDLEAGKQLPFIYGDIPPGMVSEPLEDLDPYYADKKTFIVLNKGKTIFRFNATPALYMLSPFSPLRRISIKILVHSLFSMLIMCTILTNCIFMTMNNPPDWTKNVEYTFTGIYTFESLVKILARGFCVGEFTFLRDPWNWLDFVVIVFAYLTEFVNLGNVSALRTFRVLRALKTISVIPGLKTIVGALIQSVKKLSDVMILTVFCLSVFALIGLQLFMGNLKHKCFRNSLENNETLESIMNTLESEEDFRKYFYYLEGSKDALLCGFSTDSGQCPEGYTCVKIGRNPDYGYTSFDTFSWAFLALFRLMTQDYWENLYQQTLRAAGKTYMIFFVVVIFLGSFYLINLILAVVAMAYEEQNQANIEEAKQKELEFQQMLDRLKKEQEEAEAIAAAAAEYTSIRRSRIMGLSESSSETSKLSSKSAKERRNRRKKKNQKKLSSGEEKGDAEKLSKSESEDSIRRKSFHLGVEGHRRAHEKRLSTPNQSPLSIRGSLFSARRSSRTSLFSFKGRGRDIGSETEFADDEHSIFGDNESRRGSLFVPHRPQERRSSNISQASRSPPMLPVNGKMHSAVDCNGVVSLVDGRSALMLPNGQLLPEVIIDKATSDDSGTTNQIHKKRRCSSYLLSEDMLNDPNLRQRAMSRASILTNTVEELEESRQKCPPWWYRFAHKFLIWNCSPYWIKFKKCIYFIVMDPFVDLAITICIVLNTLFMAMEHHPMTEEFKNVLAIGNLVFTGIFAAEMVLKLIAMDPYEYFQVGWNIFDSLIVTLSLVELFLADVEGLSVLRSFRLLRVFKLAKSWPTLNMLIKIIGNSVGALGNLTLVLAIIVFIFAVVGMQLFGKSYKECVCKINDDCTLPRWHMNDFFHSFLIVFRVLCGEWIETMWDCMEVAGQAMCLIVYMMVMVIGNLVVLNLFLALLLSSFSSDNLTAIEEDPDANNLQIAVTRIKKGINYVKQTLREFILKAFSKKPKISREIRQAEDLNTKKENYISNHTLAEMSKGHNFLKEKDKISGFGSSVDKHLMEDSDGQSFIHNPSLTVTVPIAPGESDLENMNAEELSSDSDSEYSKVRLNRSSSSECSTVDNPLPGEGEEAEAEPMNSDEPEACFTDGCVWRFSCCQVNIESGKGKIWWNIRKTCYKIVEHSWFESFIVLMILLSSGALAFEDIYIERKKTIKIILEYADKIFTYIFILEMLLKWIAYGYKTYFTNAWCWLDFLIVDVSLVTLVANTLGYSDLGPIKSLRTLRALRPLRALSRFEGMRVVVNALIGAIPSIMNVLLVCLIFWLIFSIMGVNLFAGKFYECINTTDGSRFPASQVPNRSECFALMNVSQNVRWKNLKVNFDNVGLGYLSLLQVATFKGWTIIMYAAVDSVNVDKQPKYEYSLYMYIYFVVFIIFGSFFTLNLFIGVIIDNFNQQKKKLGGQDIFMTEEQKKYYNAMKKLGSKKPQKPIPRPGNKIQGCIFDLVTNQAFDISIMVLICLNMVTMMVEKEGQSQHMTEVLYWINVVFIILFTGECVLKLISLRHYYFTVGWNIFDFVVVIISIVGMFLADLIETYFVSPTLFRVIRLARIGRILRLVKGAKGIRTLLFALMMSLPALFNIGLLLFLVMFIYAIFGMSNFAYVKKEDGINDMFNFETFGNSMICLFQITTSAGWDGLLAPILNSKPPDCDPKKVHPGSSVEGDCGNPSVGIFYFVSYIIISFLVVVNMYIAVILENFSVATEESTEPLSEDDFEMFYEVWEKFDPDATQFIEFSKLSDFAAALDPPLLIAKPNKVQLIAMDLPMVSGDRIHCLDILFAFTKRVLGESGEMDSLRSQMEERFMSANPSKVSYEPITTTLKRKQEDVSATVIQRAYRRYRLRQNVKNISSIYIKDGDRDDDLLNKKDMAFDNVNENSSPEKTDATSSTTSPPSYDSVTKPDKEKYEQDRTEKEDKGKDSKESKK
Target sequence in this assay (Q07699 whole entry partner, looked up): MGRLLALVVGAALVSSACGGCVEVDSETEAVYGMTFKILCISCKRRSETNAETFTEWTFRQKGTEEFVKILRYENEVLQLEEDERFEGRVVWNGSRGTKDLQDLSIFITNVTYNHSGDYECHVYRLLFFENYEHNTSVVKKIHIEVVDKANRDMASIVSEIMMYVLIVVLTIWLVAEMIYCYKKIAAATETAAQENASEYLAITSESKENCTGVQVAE

SMILES | IC50 (hNav1.7 [1]) [nM] | IC50 (hNav1.7 [2]) [nM]
CCCc1cccc([C@H]2CC[C@H](Nc3cc(F)c(S(=O)(=O)Nc4ccncn4)cc3Cl)[C@@H](N(C)C)C2)c1 [Example 223, 5-Chloro-4-(((1S,2S,4S)-2-(dimethylamino)-4-(3-propylphenyl)cyclohexyl)amino)-2-fluoro-N-(pyrimidin-4-yl)benzenesulfonamide] | 1.45 | 9.73
CN(C)[C@H]1Cc2ccccc2C[C@@H]1Nc1cc(F)c(S(=O)(=O)Nc2nccs2)cc1Cl [Example 165, 5-Chloro-4-(((2S,3S)-3-(dimethylamino)-1,2,3,4-tetrahydronaphthalen-2-yl)amino)-2-fluoro-N-(thiazol-2-yl)benzenesulfonamide] | 511 | 2000
N#C[C@@H]1CCN([C@H]2CCCC[C@@H]2Nc2cc(F)c(S(=O)(=O)Nc3nccs3)cc2Cl)C1 [Example 161, 5-Chloro-4-(((1S,2S)-2-((R)-3-cyanopyrrolidin-1-yl)cyclohexyl)amino)-2-fluoro-N-(thiazol-2-yl)benzenesulfonamide formate] | 3.03 | 187
O=S(=O)(Nc1nccs1)c1cc(Cl)c(N[C@H]2CCCC[C@@H]2N2CCCC2CO)cc1F (stereo in doubt) [Example 133, 5-chloro-2-fluoro-4-(((1S,2S)-2-((S)-2-(hydroxymethyl)pyrrolidin-1-yl)cyclohexyl)amino)-N-(thiazol-2-yl)benzenesulfonamide] | 3.2 | 20.8
CN(C)[C@H]1C[C@@H](c2cccc(C(F)(F)F)c2)CC[C@@H]1Nc1cc(F)c(S(=O)(=O)Nc2ccncn2)cc1O [Example 240, 4-(((1S,2S,4S)-2-(Dimethylamino)-4-(3-(trifluoromethyl)phenyl)cyclohexyl)amino)-2-fluoro-5-hydroxy-N-(pyrimidin-4-yl)benzenesulfonamide formate] | 2.9 | 15
CN(CC(O)CF)[C@H]1CCCC[C@@H]1Nc1cc(F)c(S(=O)(=O)Nc2nccs2)cc1Cl (single isomer, unassigned) [Example 118] | 8.51 | 242
O=S(=O)(Nc1nccs1)c1cc(Cl)c(N[C@H]2CCCC[C@@H]2N2CCC[C@H](CO)C2)cc1F [Example 168, 5-chloro-2-fluoro-4-(((1S,2S)-2-((S)-3-(hydroxymethyl)piperidin-1-yl)cyclohexyl)amino)-N-(thiazol-2-yl)benzenesulfonamide formate] | 5.16 | 40
CN(CC(O)C(F)F)[C@H]1CCCC[C@@H]1Nc1cc(F)c(S(=O)(=O)Nc2nccs2)cc1Cl (single isomer, unassigned) [Example 127] | 6.58 | 61.5
O=S(=O)(Nc1ccncn1)c1cc(Cl)c(N[C@@H]2CCCC[C@H]2N2CC3CC3C2)cc1F (stereo partly drawn) [Example 152, 4-(((1R,2R)-2-(3-azabicyclo[3.1.0]hexan-3-yl)cyclohexyl)amino)-5-chloro-2-fluoro-N-(pyrimidin-4-yl)benzenesulfonamide] | 1680 | 2000
CN(CC(O)C(F)F)[C@H]1CCCC[C@@H]1Nc1cc(F)c(S(=O)(=O)Nc2nccs2)cc1Cl (single isomer, unassigned) [Example 126] | 9.25 | 87.6
Cc1csc(NS(=O)(=O)c2cc(Cl)c(N[C@H]3CCCC[C@@H]3N(C)CCO)cc2F)n1 [Example 111, 5-chloro-2-fluoro-4-(((1S,2S)-2-((2-hydroxyethyl)(methyl)amino)cyclohexyl)amino)-N-(4-methylthiazol-2-yl)benzenesulfonamide] | 23.4 | 678
N#C[C@H]1CCN([C@H]2CCCC[C@@H]2Nc2cc(F)c(S(=O)(=O)Nc3nccs3)cc2Cl)C1 [Example 162, 5-Chloro-4-(((1S,2S)-2-((S)-3-cyanopyrrolidin-1-yl)cyclohexyl)amino)-2-fluoro-N-(thiazol-2-yl)benzenesulfonamide formate] | 8.55 | 248
CC(=O)N(C)[C@H]1CCCC[C@@H]1Nc1cc(F)c(S(=O)(=O)Nc2nccs2)cc1Cl [Example 166, N-((1S,2S)-2-((2-Chloro-5-fluoro-4-(N-(thiazol-2-yl)sulfamoyl)phenyl)amino)cyclohexyl)-N-methylacetamide] | 13.9 | 341
CN(C)[C@H]1C[C@@H](c2ccc(C(F)(F)F)cc2)CC[C@@H]1Nc1cc(F)c(S(=O)(=O)Nc2ccncn2)cc1Cl [Example 224, 5-Chloro-4-(((1S,2S,4S)-2-(dimethylamino)-4-(4-(trifluoromethyl)phenyl)cyclohexyl)amino)-2-fluoro-N-(pyrimidin-4-yl)benzenesulfonamide] | 2.36 | 8.33
CN(C)[C@H]1C[C@@H](c2cccc(C(F)(F)F)c2)CC[C@@H]1Nc1cc(F)c(S(=O)(=O)Nc2ccncn2)cc1C1CCC1 [Example 236, 5-cyclobutyl-4-(((1S,2S,4S)-2-(dimethylamino)-4-(3-(trifluoromethyl)phenyl)cyclohexyl)amino)-2-fluoro-N-(pyrimidin-4-yl)benzenesulfonamide] | 1.6 | 0.593
CN(C)[C@H]1C[C@@H]2C[C@@H]2C[C@@H]1Nc1cc(F)c(S(=O)(=O)Nc2nccs2)cc1Cl [Example 216] | 4.77 | 72.1
O=S(=O)(Nc1ccncn1)c1cc(Cl)c(N[C@H]2CC[C@H](c3cccc(C(F)(F)F)c3)C[C@@H]2N2CCCC2)cc1F [Example 242, 5-chloro-2-fluoro-N-(pyrimidin-4-yl)-4-(((1S,2S,4S)-2-(pyrrolidin-1-yl)-4-(3 (trifluoromethyl)phenyl)cyclohexyl)amino)benzenesulfonamide] | 0.182 | 0.428
O=S(=O)(Nc1cccc(F)n1)c1cc(Cl)c(N[C@H]2CCCC[C@@H]2N2CCCCC2)cc1F [Example 123, 5-chloro-2-fluoro-N-(6-fluoropyridin-2-yl)-4-(((1S,2S)-2-(piperidin-1-yl)cyclohexyl)amino)benzenesulfonamide] | 4.54 | 17.5
CN(CC1(F)CC1)[C@H]1CCCC[C@@H]1Nc1cc(F)c(S(=O)(=O)Nc2nccs2)cc1Cl [Example 136, 5-chloro-2-fluoro-4-(((1S,2S)-2-(((1-fluorocyclopropyl)methyl)(methyl)amino)cyclohexyl)amino)-N-(thiazol-2-yl)benzenesulfonamide] | 30.1 | 493
CN1CC(N(CC(F)(F)F)[C@H]2CCCC[C@@H]2Nc2cc(F)c(S(=O)(=O)Nc3nccs3)cc2Cl)C1 [Example 190, 5-Chloro-2-fluoro-4-(((1S,2S)-2-((1-methylazetidin-3-yl)(2,2,2-trifluoroethyl)amino)cyclohexyl)amino)-N-(thiazol-2-yl)benzenesulfonamide] | 41.5 | 478
CN(C)[C@H]1CCC(c2cccc(C(F)(F)F)c2)C[C@@H]1Nc1cc(F)c(S(=O)(=O)Nc2ccncn2)cc1Cl (stereo in doubt) [Example 121, 5-chloro-4-(((1S,2S,5S)-2-(dimethylamino)-5-(3-(trifluoromethyl)phenyl)cyclohexyl)amino)-2-fluoro-N-(pyrimidin-4-yl)benzenesulfonamide] | 121 | 1170
CN(C)[C@H]1C[C@@H](C(F)(F)F)CC[C@@H]1Nc1cc(F)c(S(=O)(=O)Nc2ccncn2)cc1C1CCC1 [Example 203, 5-cyclobutyl-4-(((1S,2S,4S)-2-(dimethylamino)-4-(trifluoromethyl)cyclohexyl)amino)-2-fluoro-N-(pyrimidin-4-yl)benzenesulfonamide] | 11.6 | 80.6
O=S(=O)(Nc1nccs1)c1cc(Cl)c(N[C@H]2CCCC[C@@H]2N2CCC[C@H](O)C2)cc1F [Example 153, 5-chloro-2-fluoro-4-(((1S,2S)-2-((S)-3-hydroxypiperidin-1-yl)cyclohexyl)amino)-N-(thiazol-2-yl)benzenesulfonamide] | 4.07 | 17.1
Cc1nc(NS(=O)(=O)c2cc(Cl)c(N[C@H]3CCCC[C@@H]3N(C)C)cc2F)sc1F [Example 211, 5-Chloro-4-(((1S,2S)-2-(dimethylamino)cyclohexyl)amino)-2-fluoro-N-(5-fluoro-4-methylthiazol-2-yl)benzenesulfonamide formate] | 120 | 1430
CN1CC[C@@H]1C(=O)N(C)[C@H]1CCCC[C@@H]1Nc1cc(F)c(S(=O)(=O)Nc2nccs2)cc1Cl [Example 205, (R)—N-((1S,2S)-2-((2-Chloro-5-fluoro-4-(N-(thiazol-2-yl)sulfamoyl)phenyl)amino)cyclohexyl)-N,1-dimethylazetidine-2-carboxamide] | 32.7 | 556
CCN(C)[C@H]1CCCC[C@@H]1Nc1cc(F)c(S(=O)(=O)Nc2nc(C)cs2)cc1Cl [Example 102, 5-chloro-4-(((1S,2S)-2-(ethyl(methyl)amino)cyclohexyl)amino)-2-fluoro-N-(4-methylthiazol-2-yl)benzenesulfonamide formate] | 66.5 | 424
Cc1nc(NS(=O)(=O)c2cc(Cl)c(N[C@H]3CCCC[C@@H]3N(C)C)cc2F)sc1Cl [Example 172, 5-Chloro-N-(5-chloro-4-methylthiazol-2-yl)-4-(((1S,2S)-2-(dimethylamino)cyclohexyl)amino)-2-fluorobenzenesulfonamide] | 12.3 | 38.2
CN(C)[C@H]1C[C@H](c2cccc(C(F)(F)F)c2)CC[C@@H]1Nc1cc(F)c(S(=O)(=O)Nc2ccncn2)cc1Cl [Example 218, 5-chloro-4-(((1S,2S,4R)-2-(dimethylamino)-4-(3-(trifluoromethyl)phenyl)-cyclohexyl)amino)-2-fluoro-N-(pyrimidin-4-yl)benzenesulfonamide] | 1.6 | 20.9
